Laboratory results published in patent US20150099721A1, “TREATING CANCER WITH HSP90 INHIBITORY COMPOUNDS” (Synta Pharmaceuticals Corp., priority 2012, published 2015).
“Also recorded” adds a separate entry of the source.

Assays:
[1] = test system: SLC34A2-ROS expressing HCC78 NSCLC cells; test: Cell viability (Cell Titer-Glo) in HCC78 cells; assay type: cell-based, human; conditions: for IC50: Homo sapiens, 72 hr exposure (FIG. 1A), read-out: IC50, loss of HCC78 cell viability; for cells killed by single agent: drug on its own (FIG. 1C)
Procedure: (§1) Human HCC78 NSCLC cells and human TPC-1 thyroid cancer cells were obtained from Dr. Steve Morris (St. Jude's) and grown in RPMI in the presence of fetal bovine serum (10%), 2 mM L-glutamine and antibiotics (100 IU/ml penicillin and 100 μg/ml streptomycin) purchased from Sigma Aldrich. Cells were maintained at 37° C., 5% CO2 atmosphere.
(§2) Cell viability was measured using the Cell Titer-Glo assay (Promega). In brief, cells were plated in 96-well plates in triplicate at optimal seeding density (determined empirically for each cell line) and incubated at 37° C., 5% CO2 atmosphere for 24 hr prior to the addition of drug or vehicle (0.3% DMSO) to the culture medium. At the end of the assay, Cell Titer-Glow was added to the wells per manufactures recommendation, shaken for two minutes and incubated for 10 minutes at room temperature. Luminescence (0.1 sec) was measured with a Victor II microplate reader (Perkin Elmer) and the resulting data were used to calculate cell viability, normalized to vehicle control.
(§3) Chromosomal rearrangements involving ROS kinase have been reported in several tumor types, including non-small cell lung cancer (NSCLC) and glioblastoma. […] See, e.g., Ting-Lei Gu et al, PLoS One. 2011; 6(1):e15640. To determine if inhibition of Hsp90 affects the activity of ROS fusion kinases and viability of cells driven by such fusions, SLC34A2-ROS expressing HCC78 NSCLC cells were treated with ganetespib and both viability and protein activity was assessed. […] See, e.g., Chenguang Li et al, PLoS One. 2011; 6(11):e28204. […] To determine if ganetespib affects the constitutive activity of ROS, HCC78 cells were treated with ganetespib for 24 hr and the phosphorylation of ROS was assayed by Western blot. […] In addition to SLC34A2-ROS, other ROS chimeras have been identified including CD74-ROS and FIG-ROS. Show in FIG. 1D, Ba/F3 cells stably expressing either CD74-ROS or FIG-ROS were treated with ganetespib for 24 hr and activity of ROS was determined by Western blot.

[2] = test system: ROS (SLC34A2-ROS) in HCC78 cells; test: Western blot of ROS phosphorylation in HCC78 cells; assay type: cell-based, human; conditions: 24 hr, 250 nM (FIG. 1B)
Text: (§4) Cells, treated with compound for 24 hr, were lysed in RIPA buffer (CST, Danvers, Mass., USA) on ice and clarified by centrifugation. Equal amounts of proteins were resolved by SDS-PAGE and immunoblotted with indicated antibodies (CST). The antigen-antibody complex was visualized and quantitated using an Odyssey system (LI-COR, Lincoln, Nebr., USA).
as §3

CD74-ROS = test: Western blot of ROS phosphorylation in Ba/F3 cells expressing CD74-ROS; assay type: cell-based; conditions: 24 hr, 100 nM (FIG. 1D)
Text: as §4, §3

FIG-ROS = test: Western blot of ROS phosphorylation in Ba/F3 cells expressing FIG-ROS; assay type: cell-based; conditions: 24 hr, 100 nM (FIG. 1D)
Text: as §4, §3

CCDC6-RET = test: Western blot in TPC-1 cells (CCDC6-RET, ERK, PARP); assay type: cell-based, human; conditions: 24 hr (FIG. 2)
Procedure: as §1, §4
(§5) Recently, fusions of the RET kinase have also been detected in NSCLC. See, e.g., Fei Li et al, Cell Research (2012), 1-4. One such fusion, CCDC6-RET, was determined to be present in ˜1% of lung adenocarcinomas from never smokers. To investigate whether ganetespib modulates the activity and stability of RET fusions, CCDC6-RET expressing TPC-1 thyroid cancer cells were used as a model.

[3] = test system: CCDC6-RET expressing TPC-1 thyroid cancer cells; test: Cell viability in TPC-1 cells; assay type: cell-based, human; conditions: 72 hr (FIG. 2A, FIG. 7)
Procedure: as §1, §2, §5

[4] = test system: cancer cells driven by oncogenic ROS1 fusion; test: Viability of cancer cells driven by oncogenic ROS1 fusion (FIGS. 3-4); assay type: cell-based; conditions: FIG. 3, FIG. 4
Procedure: as §2

ROS1 fusion protein = test: Degradation of ROS1 fusion protein (FIG. 5); assay type: cell-based
Text: as §4

Row | IC50 [1] [nM] | Structure (SMILES) | cells killed by single agent [1] | phosphorylation of ROS [2] | activity (phosphorylation) of CD74-ROS (CD74-ROS) | activity (phosphorylation) of FIG-ROS (FIG-ROS) | ERK activity (CCDC6-RET) | PARP cleavage (CCDC6-RET) | degradation of total and phosphorylated CCDC6-RET (CCDC6-RET) | cell death / viability of TPC-1 cells [3] | viability of cancer cells driven by oncogenic ROS1 fusion [4] | degradation of ROS1 fusion protein (ROS1 fusion protein)
1 | 17 | CC(C)c1cc(-c2nnc(O)n2-c2ccc3c(ccn3C)c2)c(O)cc1O [ganetespib, 3-(2,4-DIHYDROXY-5- ISOPROPYL-PHENYL)-4-(1- METHYL-INDOL-5-YL)-5- HYDROXY-[1,2,4] TRIAZOLE (GANETESPIB)] | approximately 50% | significant dephosphorylation of ROS | effectively reduces the activity | effectively reduces the activity | deactivation of ERK | cleavage of the pro-apoptotic protein PARP | potently induced the degradation | resulting in cell death; also recorded: significantly inhibited the viability | inhibited viability; also recorded: significantly inhibited the viability of more cancer cells | leads to degradation of ROS1 fusion protein
2 | 1040 | C[C@@H](Oc1cc(-c2cnn(C3CCNCC3)c2)cnc1N)c1c(Cl)ccc(F)c1Cl [crizotinib, reference compound] | approximately 50% | – | – | – | – | – | – | – | inhibited viability | –
